Experimental data: PMC11882969 (Nature Communications, 2025)

Legend:
CB1 (rCB1) [1] = biological target: T1, CB1 (rCB1) (Rattus norvegicus, UniProt P20272); experiment: Radioligand competition binding, [3H]-CP-55,940, rat brain membranes; conditions: for pKi [95% CI]: rCB1; for Ki: read-out: Ki [95% CI], rCB1, [3H]-CP-55,940
CB1 (rCB1) [2] = biological target: T1, CB1 (rCB1); experiment: Single-point radioligand displacement screen; assay type: binding; conditions: for % 1H-CP-55,940 displacement (mean) from single point screen: 10 µM, 1 µM or 300 nM by cell colour (not visible); for rep1_displacement / rep2_displacement / rep3_displacement: Figure 1c source data; for rep1_displacement: replicate 1; for rep2_displacement: replicate 2; for rep3_displacement: replicate 3; for % radioligand displacement [S.D]: single point at 10 µM, three replicates

T1 sequence (P20272 whole entry): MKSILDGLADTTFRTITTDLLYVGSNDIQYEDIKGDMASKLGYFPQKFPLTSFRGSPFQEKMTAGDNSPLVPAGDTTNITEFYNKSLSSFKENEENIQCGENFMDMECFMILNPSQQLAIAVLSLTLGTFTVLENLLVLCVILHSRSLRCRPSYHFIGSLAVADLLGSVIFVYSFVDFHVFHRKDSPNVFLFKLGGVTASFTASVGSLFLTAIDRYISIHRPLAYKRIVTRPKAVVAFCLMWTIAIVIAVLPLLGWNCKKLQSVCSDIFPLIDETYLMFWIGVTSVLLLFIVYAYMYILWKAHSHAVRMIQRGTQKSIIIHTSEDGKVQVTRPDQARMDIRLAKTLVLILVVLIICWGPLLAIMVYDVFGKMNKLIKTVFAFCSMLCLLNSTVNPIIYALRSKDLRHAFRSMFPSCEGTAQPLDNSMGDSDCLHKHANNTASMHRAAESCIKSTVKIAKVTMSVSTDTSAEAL

Row | Structure (SMILES) | % 1H-CP-55,940 displacement (mean) from single point screen (CB1 (rCB1) [2]) [%] | rep1_displacement (CB1 (rCB1) [2]) | rep2_displacement (CB1 (rCB1) [2]) | rep3_displacement (CB1 (rCB1) [2]) | further results
1 | CCCCCCC(C)(C)c1cc(O)c2c(c1)OC(C)(C)C1CCC(=O)CC21 (centres unmarked) [Nabilone, reference compound] |  |  |  |  | pKi [95% CI] (CB1 (rCB1) [1]): 8.6 [8.4 – 8.9]; Ki (CB1 (rCB1) [1]): 2.3 nM
2 | COC(=O)[C@H](c1cccs1)N(C)C(=O)c1cc(C)n(-c2cccc(C(F)(F)F)c2)n1 [‘1066] |  |  |  |  | pKi [95% CI] (CB1 (rCB1) [1]): 5.8 [5.4 – 6.1]; Ki (CB1 (rCB1) [1]): 1720 nM
3 | COC(=O)C(NC(=O)c1cc(-c2ccccc2)n(-c2cccc(C(F)(F)F)c2)n1)c1cccs1 (centres unmarked) [‘8079] |  |  |  |  | pKi [95% CI] (CB1 (rCB1) [1]): 7.7 [7.6 – 7.9]; Ki (CB1 (rCB1) [1]): 18.5 nM
4 | Cn1ncc2c(N3CCC(COCc4ccccc4)C3)nc(Cl)nc21 (centres unmarked) [compound 66978] | -5.01 | 10 | -21.7 | -3.3 | 
5 | CN(CCOc1ccc(Br)cc1)c1ncnc(-c2ccccc2)n1 [compound 55901] | 23.61 | 24.5 | 26.2 | 20.1 | 
6 | CC(C)n1nc(-c2nnc(C(C)(C)Oc3ccc(Cl)cc3)o2)c2ccccc2c1=O [compound 41360] | 41.24 |  |  |  | 
7 | Cn1nc(-c2nnc(C(C)(C)Oc3ccc(F)cc3)o2)c2ccccc2c1=O [compound 31486] | 32.26 |  |  |  | 
8 | Fc1ccc(C(F)(F)c2noc(-c3cnnn3-c3cccc(F)c3)n2)cc1 [compound 9217] | 46.71 | 49.7 | 46.4 | 44.1 | 
9 | COC(=O)[C@H]1Cc2ccccc2CN1C(=O)c1cc(C)n(-c2cccc(F)c2)n1 [compound 76400] | -1.48 |  |  |  | 
10 | CCc1nc(C(=O)NC(c2ccccc2)c2cccnc2)nn1-c1ccccc1Cl (centres unmarked) [compound 00051] | 16.02 | 20.4 | 19.7 | 7.9 | 
11 | O=C(OCC1CSc2ccccc2O1)c1cnn(Cc2ccccc2)c1Br (centres unmarked) [7800_27] | 70.31 |  |  |  | 
12 | COC1CCn2cc(C(=O)NCC(Cc3ccccc3)c3ccccc3)nc2C1 (centres unmarked) [compound 96198] | 18.71 | 19.2 | 20.5 | 16.4 | 
13 | CCOC(=O)C1CN(C(=O)c2cc(C)n(-c3cccc(C(F)(F)F)c3)n2)CC12CC2 (centres unmarked) [10_21] | 83.57 |  |  |  | 
14 | COC(=O)C(NC(=O)c1cc(C)n(-c2ccccc2)n1)c1cccs1 (centres unmarked) [compound 59643] | 4.63 |  |  |  | 
15 | Cc1nc(C2CC2)oc1-c1nc(Cc2ccc3c(c2)OCO3)no1 [compound 0682] | -7.41 |  |  |  | 
16 | COc1cccc(C2(C)CCN(C(=O)CC34CCCCC3C4(F)F)C2)c1 (centres unmarked) [‘7218] | 52.18 | 43.4 | 33 | 80.2 | % radioligand displacement [S.D] (CB1 (rCB1) [2]): 52.2% [24.79]
17 | CC(O)C1CCCN(C(=O)c2cc(Oc3cccc(Br)c3)ccn2)C1 (centres unmarked) [compound 74717] | 17.22 | 25.4 | 11.4 | 14.8 | 
18 | Cc1ccc(OCCC(=O)N2CC3CCCN3c3ccccc32)c(C)c1 (centres unmarked) [compound 26701] | 35.34 | 39 | 34.5 | 32.6 | 
19 | O=C(c1cn(-c2cccc(C(F)(F)F)c2)nn1)N1CC2(CCC2)C1C1CCCO1 (centres unmarked) [10_23] | 25.67 |  |  |  | 
20 | Cc1cc(C(=O)N2CC3(CCC3)C2C2CCOCC2)nn1-c1cccc(C(F)(F)F)c1 (centres unmarked) [10_19] | 82.61 |  |  |  | 
21 | Cc1c(C(=O)OCC2CSc3ccccc3O2)cnn1Cc1cccc(C(F)(F)F)c1 (centres unmarked) [7800_25] | 58.49 |  |  |  | 
22 | COc1cc(OC)cc(-c2nc([C@H](OC)c3ccc(Br)cc3)no2)c1 [compound 13596] | 47.56 | 46.1 | 49 |  | 
23 | O=C(OCc1ncnn1-c1ccccc1)c1csc(Cc2ccccc2F)n1 [compound 67565] | 8.02 | 8 |  | 8 | 
24 | COC(=O)[C@H](C)NC(=O)c1cc(C)n(-c2cccc(F)c2)n1 [1486_11] | -7.46 |  |  |  | 
25 | CCOC(=O)CCC(OC(=O)c1nc(C)n(-c2ccccc2)n1)c1ccccc1 (centres unmarked) [compound 11070] | 34.00 | 33.8 | 28.7 | 39.6 | 
26 | O=C(OCC1CSc2ccccc2O1)c1cn(Cc2cccc(F)c2)nn1 (centres unmarked) [compound 23346] | 25.27 |  |  |  | 

Row | Structure (SMILES) | % 1H-CP-55,940 displacement (mean) from single point screen (CB1 (rCB1) [2]) [%] | rep1_displacement (CB1 (rCB1) [2]) | rep2_displacement (CB1 (rCB1) [2]) | rep3_displacement (CB1 (rCB1) [2]) | further results
27 | COCCOc1cc(C(=O)N2CCCC(CC3CCOC3)C2)nc2ccccc12 (centres unmarked) [compound 49667] | 4.27 | 10.3 | 4.1 | -1.6 | 
28 | O=C1CN(C(=O)c2ccc(Cl)c3cccnc23)CN1Cc1ccccc1 [compound 14861] | 15.10 | 15 | 15.3 | 15 | 
29 | N#CCCn1ncc(C(=O)N2CCC(F)(c3cc(F)cc(F)c3)C2)c1-c1ccccc1 (centres unmarked) [compound 34734] | 15.43 | 21.6 | 10.3 | 14.4 | 
30 | Cc1ccn2cc(C(=O)N3CCc4c(F)cc(Br)cc4C3)nc2c1 [compound 35971] | 13.78 | 9.7 | 11.6 | 20 | 
31 | Cc1nc(CC2CC2)oc1-c1nc(Cc2ccc3c(c2)OCCCO3)no1 [7019_1] | 6.40 |  |  |  | 
32 | CC1(C)CN(C(=O)c2cn(-c3cccc(C(F)(F)F)c3)nn2)C1c1cccs1 (centres unmarked) [10_20] | 52.38 |  |  |  | 
33 | O=C(c1ccccc1CS(=O)(=O)c1ccccc1)N1CCC(c2cccc(F)c2)C1 (centres unmarked) [compound 41949] | 33.74 | 30 | 36.7 | 34.6 | 
34 | CCOC(=O)C(NC(=O)c1cc(C)n(-c2cccc(F)c2)n1)C1CCOCC1 (centres unmarked) [compound 64854] | -2.51 |  |  |  | 
35 | Cn1nc(Cc2nnc(C(C)(C)Oc3ccc(Cl)cc3)o2)c2ccccc2c1=O [0450_25] | -12.39 |  |  |  | 
36 | O=c1ccc(-c2nc(C(F)(F)c3ccc(F)cc3)no2)nn1-c1ccc(F)cc1 [‘2443] | 51.06 | 53.4 | 54.3 | 45.5 | % radioligand displacement [S.D] (CB1 (rCB1) [2]): 51.1% [4.87]
37 | O=C(OCC1CSc2ccccc2O1)c1ccc(Oc2cccnc2)cc1 (centres unmarked) [compound 82778] | 26.16 |  |  |  | 
38 | Cc1nc(CC2CC2)oc1-c1nc(Cc2cc(Br)c3c(c2)OCO3)no1 [compound 53217] | 14.33 |  |  |  | 
39 | COC(=O)C(NC(=O)c1coc(C2CCOCC2)n1)c1cccs1 (centres unmarked) [compound 19213] | 1.83 |  |  |  | 
40 | Cc1ccccc1-n1c(=O)c2ccccc2n2c(SC[C@H]3CCCO3)nnc12 [compound 97662] | 18.48 | 20.6 | 19.4 | 15.5 | 
41 | CN(C)c1cc(-c2nc(Cc3ccc4c(c3)OCCO4)no2)c2ccccc2n1 [compound 85562] | 44.88 | 45.9 | 44.2 | 44.5 | 
42 | Cc1cc(C(=O)NC(c2cccnc2)C2CC2)nn1-c1cccc(C#N)c1 (centres unmarked) [compound 74836] | 33.29 | 34.5 | 34.8 | 30.5 | 
43 | COc1ccc(Cl)c(-c2cc(C(=O)N3CCOC[C@@H]3CC(C)C)on2)c1 [compound 97878] | 33.55 | 62.5 | 14.5 | 23.7 | 
44 | CCCCc1nc(C)c(Cc2nc(Cc3ccc4c(c3)OCO4)no2)s1 [7019_27] | 45.01 |  |  |  | 
45 | Cc1nc(CC2CC2)oc1-c1nc(Cc2ccc3c(c2)OCO3)no1 [compound 97058] | 17.45 |  |  |  | 
46 | O=C(NCC1CSc2ccccc2O1)c1ncc(Cc2ccccc2)o1 (centres unmarked) [compound 5752] | 24.02 |  |  |  | 
47 | Cc1cc(C(=O)N2CC3(CCC3)[C@@H]3COC[C@@H]32)nn1-c1cccc(C(F)(F)F)c1 [10_14] | 91.30 |  |  |  | 
48 | Cc1nn(Cc2ccccc2Cl)c(C)c1C(=O)OCC1CSc2ccccc2O1 (centres unmarked) [7800_28] | 55.46 |  |  |  | 
49 | Cc1cc(C(=O)Nc2ccnn2-c2cccc(Cl)c2)nn1[C@H](C)C1CC1 [‘7902] | 57.08 | 57 | 57.3 | 57 | % radioligand displacement [S.D] (CB1 (rCB1) [2]): 57.1% [0.02]
50 | Cc1c(C(=O)OCC2CSc3ccccc3O2)cnn1-c1ccccc1 (centres unmarked) [compound 3189] | 46.85 |  |  |  | 
51 | COC(=O)C(OC(=O)c1cc(C)n(-c2cccc(Cl)c2)n1)c1ccsc1 (centres unmarked) [compound 75729] | 29.65 | 32.1 | 28 | 28.8 | 
52 | COC(=O)[C@@H](NC(=O)c1cc(C)n(-c2cccc(F)c2)n1)c1ccc(OC)cc1 [compound 59513] | 10.54 |  |  |  | 
